Assay results published in ChEMBL document CHEMBL2384947, “27-Nor-Δ(4)-dafachronic acid is a synthetic ligand of Caenorhabditis elegans DAF-12 receptor” (Bioorg Med Chem Lett, 2013).
Calls of active or inactive are those of the source. The rule behind the calls is not given here.

How the values were obtained:
[1] = system: Caenorhabditis elegans; experiment: Reduction in resistance to H2O2-induced oxidative stress in Caenorhabditis elegans RG1228 harboring daf-9(rh50) mutant assessed as survival at 250 nM incubated 1 hr prior to H2O2 challenge; format: functional, organism-based
[2] = system: Caenorhabditis elegans; experiment: Activation of DAF-12 receptor in Caenorhabditis elegans RG1228 harboring daf-9(rh50) mutant assessed as mig phenotype rescue at 250 nM after 3 days
[3] = system: HEK293; experiment: (§1) Transactivation of Caenorhabditis elegans DAF-12 receptor LBD transfected in HEK293 cells co-expressing Gal4-DBD after 20 hrs by luciferase reporter gene assay; format: cell-based
[4] = as §1; format: cell-based; conditions: HEK293, 20 h
[5] = system: Caenorhabditis elegans; experiment: Reduction in resistance to H2O2-induced oxidative stress in wild type Caenorhabditis elegans N2 assessed as survival at 250 nM incubated 1 hr prior to H2O2 challenge relative to control; format: functional, organism-based

- Activity [2]: Active
- EC50 [4]: 10 µM
SMILES: C[C@H](CCCCC(=O)O)[C@H]1CC[C@H]2[C@@H]3CCC4=CC(=O)CC[C@]4(C)[C@H]3CC[C@]12C
- Activity [1]: Active
- Activity [3]: Dose-dependent effect
- Activity [5]: Active
